Results: BindingDB's records for doi:10.1021/jm00026a002 (Upjohn, 1995)

Molecular target: T1, Dimer of Gag-Pol polyprotein [489-587] (Human immunodeficiency virus 1, UniProt P12497)
T1 construct: 489-587
Assay: Protease Inhibition Assay
Conditions: pH 5; 22 °C
Description: HIV-1 protease was purified and refolded from E. coli inclusion bodies. […] In the presence of HIV-l protease, the substrate is rapidly cleaved into two parts. The biotinylated amino terminal fragment binds to the avidin beads while the FITC-containing carboxy1 terminal fragment is removed through the membrane. […] The bound fluorescence is obtained by processing on an IDEXX Screen Machine. Determination of Ki values with this assay requires analysis under conditions in which substrate concentration resides substantially below Km and the inhibitor concentrations greatly exceeds the Ki value and the enzyme concentration.

SMILES: O=c1oc2c(c(O)c1[C@H](c1cccc(NS(=O)(=O)c3ccccc3)c1)C1CC1)CCCCCC2 [N-{3-[(S)-cyclopropyl({4-hydroxy-2-oxo-2H,5H,6H,7H,8H,9H,10H-cycloocta[b]pyran-3-yl})methyl]phenyl}benzenesulfonamide]
- Ki: 3 nM
